The values that follow come from patent US20050026853A1, “Anti-viral 7-deaza D-nucleosides and uses thereof” (Micrologix Biotech Inc., priority 2002, published 2005).

The subject of one data set is HBV. The experiment in a line: HBV cell-based assay. The arrangement: species or system hepatitis B virus. The source says:
As described herein, compounds of the instant invention show surprising and exceptionally strong inhibition of viral replication, particularly HBV. […] In certain embodiments, the invention provides compounds capable of inhibiting viral replication, preferably HBV, at clinically relevant concentrations.
HBV cell-based assays for the evaluation of anti-viral activity against HBV are known in the art (see, e.g., Korba et al., Antiviral Res. 15:217, 1991; and Korba et al., Antiviral Res. 19:55, 1992). Moreover, the compounds of the invention can be useful research tools for in vitro and cell-based assays to study the biological mechanisms of viral infection, growth, and replication, preferably for HBV. By way of background and not wishing to be bound by theory, HBV replication is unusual in that this virus has a partially […] circular DNA (all of the minus DNA strand and part of the plus strand), but replicates by way of an RNA intermediate (typically, single-stranded viral DNA is converted to double stranded DNA, which serves as the template for viral replication). That is, when the virus enters the cell, the minus-strand DNA is transported to the cell nucleus, plus strand RNA is then transcribed from the DNA, the RNA is transported to the cytoplasm, and reverse transcriptase then synthesizes viral DNA from the RNA for packaging. […]

A short description of data set [1]: overall biopharmaceutical properties / oral availability.

Regarding `Nc1ncnc2c1c(F)cn2[C@H]1CC(O)[C@@H](CO)O1` (stereo partly drawn) [structure (II), 4-amino-5-fluoro-7-(2′-deoxy-β-D-erythro-pentofuranosyl) pyrrolo[2,3-d]pyrimidine], the “anti-viral activity against HBV” value with HBV was “exhibit anti-viral activity against HBV”. In addition, in data set [1], the oral availability result is “orally available” and the overall biopharmaceutical properties entry is reported as “good overall biopharmaceutical properties”.
